We go through 1 compound from PubChem BioAssay AID602176 (NMMLSC, 2012).

Active and inactive are the calls of the source. The rule behind the calls is not given here.

The target in this assay is Botulinum neurotoxin type A (Clostridium botulinum (strain Hall / ATCC 3502 / NCTC 13319 / Type A)) (UniProt P0DPI1). The assay is described as follows: Botulinum neurotoxin type A light chain protease inhibitors, multiplex microsphere cleavage, dose response confirmation (AID 602176). Particulars: multiplex microsphere protease substrate cleavage, flow cytometry. (Flow cytometry measures light scatter and fluorescence of single cells or particles in a stream.)
Botulinum neurotoxin type A (Clostridium botulinum (strain Hall / ATCC 3502 / NCTC 13319 / Type A)), sequence (P0DPI1 whole entry, looked up): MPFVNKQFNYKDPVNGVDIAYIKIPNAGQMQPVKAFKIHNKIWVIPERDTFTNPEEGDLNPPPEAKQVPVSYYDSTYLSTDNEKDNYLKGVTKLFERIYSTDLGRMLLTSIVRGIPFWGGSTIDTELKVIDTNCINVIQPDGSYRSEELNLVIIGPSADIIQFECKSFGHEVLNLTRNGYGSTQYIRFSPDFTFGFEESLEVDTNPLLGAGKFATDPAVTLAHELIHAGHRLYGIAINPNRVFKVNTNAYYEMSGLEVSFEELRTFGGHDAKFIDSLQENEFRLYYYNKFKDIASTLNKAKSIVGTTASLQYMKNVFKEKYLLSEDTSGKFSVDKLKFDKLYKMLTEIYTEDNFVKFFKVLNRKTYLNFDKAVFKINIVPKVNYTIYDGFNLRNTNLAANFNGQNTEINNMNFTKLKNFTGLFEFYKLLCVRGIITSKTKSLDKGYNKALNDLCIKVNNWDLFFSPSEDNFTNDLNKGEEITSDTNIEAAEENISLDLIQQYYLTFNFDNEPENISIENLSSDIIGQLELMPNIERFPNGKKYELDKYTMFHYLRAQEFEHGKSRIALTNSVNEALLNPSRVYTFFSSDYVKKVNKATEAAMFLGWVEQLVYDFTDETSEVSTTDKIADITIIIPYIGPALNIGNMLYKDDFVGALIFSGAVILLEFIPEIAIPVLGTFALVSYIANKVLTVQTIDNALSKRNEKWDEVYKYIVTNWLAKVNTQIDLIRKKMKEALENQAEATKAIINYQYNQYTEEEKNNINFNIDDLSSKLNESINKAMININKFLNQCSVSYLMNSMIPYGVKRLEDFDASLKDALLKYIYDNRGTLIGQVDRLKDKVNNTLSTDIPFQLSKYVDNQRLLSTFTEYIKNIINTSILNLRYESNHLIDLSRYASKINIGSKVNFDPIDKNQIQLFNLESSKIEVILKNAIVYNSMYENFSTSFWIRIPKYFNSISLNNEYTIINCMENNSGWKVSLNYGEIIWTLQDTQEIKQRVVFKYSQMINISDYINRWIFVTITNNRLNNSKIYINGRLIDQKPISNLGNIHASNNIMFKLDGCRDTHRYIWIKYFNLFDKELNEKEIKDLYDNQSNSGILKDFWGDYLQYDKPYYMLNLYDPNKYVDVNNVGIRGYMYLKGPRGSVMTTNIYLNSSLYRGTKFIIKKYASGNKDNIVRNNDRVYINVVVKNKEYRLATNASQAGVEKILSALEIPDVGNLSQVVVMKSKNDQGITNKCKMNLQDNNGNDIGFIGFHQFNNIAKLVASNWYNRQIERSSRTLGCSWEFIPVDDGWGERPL

Broadly, the EC50 is the concentration at which the effect is half-maximal. For the compound `Oc1[nH]c(N=C2N=c3ccccc3=N2)c2ccccc12`, the EC50 is > 20 µM (inactive).
